Mortality and pest or weed control data for 10 compounds are collected here from US4962109A, “Insecticidally and acaricidally active pyrimidine esters and intermediates therefor” (Imperial Chemical Industries PLC, priority 1985, dated 1990).

SMILES strings stand for the structures.

What all share (type): in vivo
Assay [1] relates to Tetranychus urticae (spider mites - adult). In words: Contact test on spider mites - adult (TUa), French bean leaf, mortality. The settings on record: 72 h, 500 ppm, contact, 3 days, read-out: TUa grading of mortality. The procedure, abridged:
(§1)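 Pests were supported on a host plant or food medium, and either or both were treated with preparations at 500, 250 or 100 ppm by weight. Mortality was assessed one to three days afterwards and banded into three grades, from A (80-100%) down to C (under 50%).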

Assay [2] relates to Tetranychus urticae (spider mites - ova). In words: Contact test on spider mites - ova (TUe), French bean leaf, mortality. The settings on record: 144 h, 500 ppm, contact, 6 days, read-out: TUe grading of mortality. The procedure, abridged:
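Graded read-out: A 80-100%, B 50-79%, C below 50% mortality or knockdown, assessed usually 1-3 days post-treatment. Liquid preparations at 500, 250 or 100 ppm by weight, from acetone solution diluted in water with 0.01% wetting agent, applied to pests and/or their host plant or food medium.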

In assay [3] the test system is Myzus persicae (aphids). The assay is described as follows: Contact test on aphids (MP), Chinese Cabbage leaf, mortality. The settings on record: 72 h, 500 ppm, contact, 3 days, read-out: MP grading of mortality. The procedure, abridged:
as §1

Assay [4] relates to Nephotettix cincticeps (green leaf hopper - nymphs). The assay is described as follows: Contact test on green leaf hopper nymphs (NC), Rice plant, mortality. The note with it: 48 h, 500 ppm, contact, 2 days, read-out: NC grading of mortality. The procedure, abridged:
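Product dissolved in acetone, diluted in water with 0.01% wetting agent to 500, 250 or 100 ppm; nymphs and/or host rice plants treated. Mortality or knockdown assessed 1–3 days later, graded A (80-100%), B (50-79%), C (<50%).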

For assay [5], the system named is Musca domestica (houseflies - adults). In words: Knockdown test on houseflies - adults (MD/KD), Cotton wool/sugar. The settings on record: 500 ppm, 4 hours, read-out: MD/KD grading of knockdown. The procedure, abridged:
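Adult houseflies exposed to the compound at 500, 250 or 100 ppm in acetone/water with 0.01% wetting agent, on a cotton wool/sugar medium. Knockdown and mortality assessed, graded A (80-100%), B (50-79%) or C (<50%).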

Assay [6] shares this test system. The assay is described as follows: Contact test on houseflies - adults (MD), Cotton wool/sugar, mortality. The settings on record: 72 h, 500 ppm, contact, 3 days, read-out: MD grading of mortality. The procedure, abridged: as §1
Assay [7] relates to Blattella germanica (cockroach nymphs). In words: Contact test on cockroach nymphs (BG/C), Plastic pot, mortality. The note with it: 48 h, 500 ppm, contact, 2 days, read-out: BG/C grading of mortality. The procedure, abridged: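 Cockroach nymphs and/or their medium were treated with aqueous preparations at 500, 250 or 100 ppm (acetone solution diluted in water with 0.01% Lissapol NX wetting agent). Mortality or knockdown was assessed typically 1–3 days later and graded A (80–100%), B (50–79%) or C (<50%).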

Assay [8] relates to Heliothis virescens (tobacco budworm - larvae). The assay is described as follows: Residual test on tobacco budworm larvae (HV), Cotton leaf, mortality. The settings on record: 48 h, read-out: HV grading of mortality. The procedure, abridged:
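Product in acetone diluted with water containing 0.01% Lissapol NX, at 500, 250 or 100 ppm; pests and/or host medium (here cotton leaf) treated. Mortality scored one to three days later, graded A (80-100%), B (50-79%), C (<50%).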

The subject of assay [9] is Spodoptera exigua (lesser army worm - larvae). In words: Residual test on lesser army worm larvae (SP), Cotton leaf, mortality. The note with it: 48 h, 500 ppm, residual, 2 days, read-out: SP grading of mortality. The procedure, abridged: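 Product dissolved in acetone and diluted in water with 0.01% wetting agent to 500, 250 or 100 ppm; larvae and/or cotton leaf host treated. Mortality or knockdown scored one to three days later and graded A (80-100%), B (50-79%) or C (<50%).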

Assay [10] concerns Diabrotica balteata (rootworm larvae). In words: Residual test on rootworm larvae (DB), Filter paper/maize seed, mortality. The settings on record: 48 h, 500 ppm, residual, 2 days, read-out: DB grading of mortality. The procedure, abridged: as §1

As for `CC(C)OCc1c(F)c(F)c(COC(=O)C(c2cnc(C(C)(C)C)nc2)C(C)(C)C)c(F)c1F` (racemic) [Compound 189, 2,3,5,6-tetrafluoro-4-[(1-methyl)ethoxy]methylbenzyl (RS)-2-[2-(1,1-dimethylethyl)-pyrimidin-5-yl]-3,3dimethylbutanoate], the mortality at 500 ppm in [1] is 80 to 100%; in [2] it was under 50%; in assay [3], 80 to 100%; in [4] it was 80 to 100%; in [6], under 50%; in assay [7] it was under 50%. Also, the mortality at 500 ppm in [8] was under 50%; in assay [9], 80 to 100%; in [10] it was under 50%. For the same compound, in assay [5], the pest or weed control at 500 ppm is 50 to 79%.
Regarding `CC(C)(C)c1ncc(C(C(=O)OCc2c(F)c(F)c(CC3CC3)c(F)c2F)C(C)(C)C)cn1` (racemic) [Compound 179, 4-(cyclopropylmethyl)-2,3,5,6-tetrafluorobenzyl (RS)-2-[2-(1,1-dimethylethyl)pyrimidin-5-yl]-3,3-dimethylbutanoate], the mortality at 500 ppm in [1] is 80 to 100%; in assay [2] it was under 50%; in assay [3], 80 to 100%; in assay [4], 80 to 100%; in assay [6], under 50%; in assay [7], under 50%. Besides, the mortality at 500 ppm in [8], in assay [9] and in assay [10] was under 50% throughout. The pest or weed control at 500 ppm in assay [5] was under 50%.
Regarding `CC1(c2ncc(C(C(=O)OCc3ccc(F)c(Oc4ccccc4)c3)C(C)(C)C)cn2)CC1` (racemic) [Compound 204, 4-fluoro-3-phenoxybenzyl (RS)-2-[2-(1-methylcyclopropyl)pyrimidin-5-yl]-3,3-dimethylbutanoate], the mortality at 500 ppm in assay [1] was 80 to 100%; in [2], under 50%; in assay [3] it was 80 to 100%; in [4], 80 to 100%; in assay [6] it was 80 to 100%; in assay [7], 50 to 79%. For the same compound, the values for the mortality at 500 ppm in [8], in assay [9] and in [10] were 80 to 100%, 80 to 100% and under 50%, respectively. Also, the pest or weed control at 500 ppm in assay [5] lay within 80 to 100%.
Take `CC(C)(C)c1ncc(C(C(=O)OCc2cccc(Oc3ccccc3)c2)C(C)(C)C)cn1` (racemic) [Compound 1, 3-phenoxybenzyl (RS)-2-[2-(1,1,-dimethylethyl)pyrimidin-5-yl]-3,3-dimethylbutanoate]: the mortality at 500 ppm in [1] is 80 to 100%; in [2] it was 80 to 100%; in [3], 80 to 100%; in [4] it was 80 to 100%; in [6], under 50%; in assay [7] it was under 50%. The mortality at 500 ppm in [8] was 80 to 100%; in [9], under 50%; in [10], under 50%. For the same compound, the pest or weed control at 500 ppm in [5] fell in the range of 80 to 100%.
Regarding `COCc1c(F)c(F)c(COC(=O)C(c2cnc(C3CC3)nc2)C(C)(C)C)c(F)c1F` (racemic) [Compound 135, 2,3,5,6-tetrafluoro-4-(methoxymethyl)benzyl (RS)-2-(2-cyclopropylpyrimidin-5-yl)-3,3-dimethylbutanoate], the mortality at 500 ppm in [1] was 80 to 100%; in assay [2], 80 to 100%; in assay [3], 80 to 100%; in assay [4] it was 80 to 100%; in assay [6], 80 to 100%; in assay [7] it was under 50%. Further, the mortality at 500 ppm was under 50% in assay [8], 80 to 100% in assay [9] and 80 to 100% in assay [10]. Moreover, the pest or weed control at 500 ppm in assay [5] fell in the range of 80 to 100%.
For the compound `CC(C)(C)c1ncc(C(C(=O)OCc2c(F)c(F)c(F)c(F)c2F)C(C)(C)C)cn1` (racemic) [Compound 30, 2,3,4,5,6-pentafluorobenzyl (RS)-2-[2-(1,1-dimethylethyl)pyrimidin-5-yl]-3,3-dimethylbutanoate], the mortality at 500 ppm is 80 to 100% in assay [1]; under 50% in assay [2]; 80 to 100% in assay [3]; 80 to 100% in assay [4]; 80 to 100% in assay [6]; under 50% in assay [7]. In addition, the mortality at 500 ppm in [8], in [9] and in assay [10] was 80 to 100% in each case. For the same compound, the pest or weed control at 500 ppm in [5] fell in the range of 80 to 100%.
As for `COCc1c(F)c(F)c(COC(=O)C(c2cnc(C3(C)CCCCC3)nc2)C(C)(C)C)c(F)c1F` (racemic) [Compound 207, 2,3,5,6-tetrafluoro-4-(methoxymethyl)benzyl (RS)-2-[2-(1-methylcyclohexyl)pyrimidin-5-yl]-3,3-dimethylbutanoate], the mortality at 500 ppm in assay [1] was 80 to 100%; in assay [2], under 50%; in [3], 80 to 100%; in assay [4] it was 80 to 100%; in assay [6], under 50%; in [7], under 50%. In addition, the mortality at 500 ppm in assay [8], in [9] and in assay [10] was under 50% each time. Also, in assay [5], the pest or weed control at 500 ppm fell in the range of 80 to 100%.
As to `CCC(C)(C)c1ncc([C@H](C(=O)O[C@H](C)c2cccc(Oc3ccccc3)n2)C(C)(C)C)cn1` (racemic) [Compound 57, (RS)-1-(6-phenoxypyrid-2-yl)ethyl (RS)-2-[2-(1,1-dimethylpropyl)pyrimidin-5-yl]-3,3dimethylbutanoate], the mortality at 500 ppm in [1] was 80 to 100%; in assay [2], under 50%; in assay [3], 80 to 100%; in [4] it was 80 to 100%; in assay [6], 80 to 100%; in [7], under 50%. In addition, the mortality at 500 ppm in assay [8] is 80 to 100%; in [9], 80 to 100%; in [10], under 50%. Besides, the pest or weed control at 500 ppm in assay [5] lay in the range of 80 to 100%.
With `CC(C)OC(=O)c1c(F)c(F)c(COC(=O)C(c2cnc(C(C)(C)C)nc2)C(C)(C)C)c(F)c1F` (racemic) [Compound 171, 4-[(prop-2-yl)oxycarbonyl]-2,3,5,6-tetrafluorobenzyl (RS)-2-[2-(1,1-dimethylethyl)pyrimidin-5-yl]-3,3-dimethylbutanoate], the mortality at 500 ppm in assay [1] is 80 to 100%; in assay [2], under 50%; in assay [3], under 50%; in [4], under 50%; in assay [6], under 50%; in assay [7] it was under 50%. The mortality at 500 ppm in assay [8], in [9] and in [10] was under 50% each time. The pest or weed control at 500 ppm in [5] is under 50%.
For the compound `COCc1c(F)c(F)c(COC(=O)C(c2cnc(C(C)C)nc2)C(C)(C)C)c(F)c1F` (racemic) [Compound 131, 2,3,5,6-tetrafluoro-4-(methoxymethyl)benzyl (RS)-2-[2-(1-methylethyl)-pyrimidin-5-yl]-3,3dimethylbutanoate], the mortality at 500 ppm in assay [1] was 80 to 100%; in assay [2], 80 to 100%; in assay [3], 80 to 100%; in assay [4], 80 to 100%; in [6] it was under 50%; in [7], under 50%. The mortality at 500 ppm was under 50% in assay [8], 80 to 100% in assay [9] and 80 to 100% in [10]. Further, in assay [5], the pest or weed control at 500 ppm fell in the range of 80 to 100%.
